Data from PubChem BioAssay (NCI).
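Exposure lasted 48 hours, with cells grown in 96-well plates and compounds tested at five concentrations. GI50 marks 50% less growth. TGI marks complete inhibition of growth.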

How the values were obtained:
Assay in all cases: inhibition of tumour cell growth, NCI panel, 48 h
SK-MEL-5 melanoma = test system: SK-MEL-5 melanoma
SK-MEL-28 melanoma = test system: SK-MEL-28 melanoma
ACHN renal = test system: ACHN renal
DLD-1 colon = test system: DLD-1 colon
UACC-62 melanoma = test system: UACC-62 melanoma
MDA-MB-231 breast = test system: MDA-MB-231 breast
LOX IMVI melanoma = test system: LOX IMVI melanoma
NCI/ADR-RES ovarian = test system: NCI/ADR-RES ovarian
HOP-62 NSCLC = test system: HOP-62 NSCLC
M19-MEL melanoma = test system: M19-MEL melanoma

## COC(=O)Cc1cc(=O)[nH]c2c1C(=O)CCC2
SK-MEL-5 melanoma
  TGI: > 100 µM
SK-MEL-28 melanoma
  TGI: > 100 µM
ACHN renal
  TGI: > 100 µM
DLD-1 colon
  TGI: > 100 µM

## O=Cc1ccc(-c2ccc(-c3nc4ccccc4s3)cc2)s1
SK-MEL-5 melanoma
  GI50: 27.1 µM
  TGI: > 100 µM
UACC-62 melanoma
  GI50: 22.2 µM
  TGI: > 100 µM
SK-MEL-28 melanoma
  GI50: > 100 µM
  TGI: > 100 µM
MDA-MB-231 breast
  GI50: 17.6 µM
  TGI: 78.2 µM
ACHN renal
  GI50: 43.5 µM
  TGI: > 100 µM
LOX IMVI melanoma
  GI50: 68.1 µM
  TGI: > 100 µM
NCI/ADR-RES ovarian
  GI50: 40.8 µM
  TGI: > 100 µM
HOP-62 NSCLC
  GI50: > 100 µM
  TGI: > 100 µM

## O=c1c2cc3c(cc2c2cccc4c2n1CCC4)OCO3
M19-MEL melanoma
  TGI: > 100 µM
SK-MEL-5 melanoma
  TGI: > 100 µM
UACC-62 melanoma
  TGI: > 100 µM
SK-MEL-28 melanoma
  TGI: > 100 µM
ACHN renal
  TGI: > 100 µM
DLD-1 colon
  TGI: > 100 µM
LOX IMVI melanoma
  TGI: > 100 µM
HOP-62 NSCLC
  TGI: > 100 µM

## CC(=O)Nc1n[n+]([O-])c2cc(C)ccc2[n+]1[O-]
SK-MEL-5 melanoma
  TGI: 3.87 µM
UACC-62 melanoma
  TGI: 6.04 µM
SK-MEL-28 melanoma
  TGI: 44.2 µM
MDA-MB-231 breast
  TGI: 23.4 µM
ACHN renal
  TGI: 11.2 µM
LOX IMVI melanoma
  TGI: 11.5 µM
NCI/ADR-RES ovarian
  TGI: > 44.7 µM
HOP-62 NSCLC
  TGI: 11.4 µM

## COc1cc2c(c(OC)c1OC)-c1ccc(N=NC(N)=S)c(=O)cc1[C@@H](NC(C)=O)CC2
SK-MEL-5 melanoma
  GI50: 0.324 µM
  TGI: 1.24 µM
UACC-62 melanoma
  GI50: 0.646 µM
  TGI: > 100 µM
SK-MEL-28 melanoma
  GI50: 0.808 µM
  TGI: > 100 µM
MDA-MB-231 breast
  GI50: 0.592 µM
  TGI: > 27.7 µM
ACHN renal
  GI50: 5.08 µM
  TGI: > 100 µM
LOX IMVI melanoma
  GI50: 0.618 µM
  TGI: > 100 µM
NCI/ADR-RES ovarian
  GI50: 17.5 µM
  TGI: 49.1 µM
HOP-62 NSCLC
  GI50: 1.8 µM
  TGI: > 100 µM

## COc1cccc(N2C(=O)C3C4C=C5c6ccccc6N(c6ccccc6)C5(C3C2=O)[C@H]2C(=O)N(c3cccc(OC)c3)C(=O)[C@@H]42)c1 (stereo partly drawn)
M19-MEL melanoma
  TGI: > 100 µM
SK-MEL-5 melanoma
  TGI: > 100 µM
UACC-62 melanoma
  TGI: > 100 µM
DLD-1 colon
  TGI: > 100 µM
LOX IMVI melanoma
  TGI: > 100 µM
HOP-62 NSCLC
  TGI: > 100 µM

## COc1ccc(C(=O)C#Cc2c[nH]c(=O)[nH]c2=O)cc1
M19-MEL melanoma
  TGI: 21.9 µM
SK-MEL-5 melanoma
  TGI: 27.9 µM
UACC-62 melanoma
  TGI: 32.8 µM
SK-MEL-28 melanoma
  TGI: 30.1 µM
ACHN renal
  TGI: 30.5 µM
DLD-1 colon
  TGI: 24.6 µM
LOX IMVI melanoma
  TGI: 9.52 µM
HOP-62 NSCLC
  TGI: 47.7 µM

## CCCCCCNCc1cc(C(C)(C)C)cc(CNCCCCCC)c1O
SK-MEL-5 melanoma
  GI50: 1.65 µM
  TGI: 3.01 µM
UACC-62 melanoma
  GI50: 1.55 µM
  TGI: 2.91 µM
SK-MEL-28 melanoma
  GI50: 1.83 µM
  TGI: 3.27 µM
MDA-MB-231 breast
  GI50: 1.35 µM
  TGI: 2.7 µM
ACHN renal
  GI50: 1.62 µM
  TGI: 2.97 µM
LOX IMVI melanoma
  GI50: 1.58 µM
  TGI: 2.94 µM
NCI/ADR-RES ovarian
  GI50: 1.75 µM
  TGI: 3.24 µM
HOP-62 NSCLC
  GI50: 1.58 µM
  TGI: 2.93 µM

## CCC(C)C(=O)OCC(=O)c1ccc(-c2ccccc2)cc1 (stereo not drawn)
SK-MEL-5 melanoma
  TGI: 72.6 µM
UACC-62 melanoma
  TGI: > 100 µM
SK-MEL-28 melanoma
  TGI: > 100 µM
MDA-MB-231 breast
  TGI: > 100 µM
ACHN renal
  TGI: > 100 µM
LOX IMVI melanoma
  TGI: > 100 µM
NCI/ADR-RES ovarian
  TGI: > 100 µM
HOP-62 NSCLC
  TGI: > 100 µM

## C=Cn1c([N+](=O)[O-])cnc1/C=C/c1ccc(C(=O)OCCN2CCOCC2)cc1
SK-MEL-5 melanoma
  TGI: > 100 µM
UACC-62 melanoma
  TGI: > 100 µM
SK-MEL-28 melanoma
  TGI: > 100 µM
MDA-MB-231 breast
  TGI: > 100 µM
ACHN renal
  TGI: > 100 µM
LOX IMVI melanoma
  TGI: > 100 µM
NCI/ADR-RES ovarian
  TGI: > 100 µM
HOP-62 NSCLC
  TGI: > 100 µM
